Test results taken from ChEMBL document CHEMBL1129220, “Synthesis and structure-activity relationships of novel 3-Hty-substituted pneumocandins” (Bioorg Med Chem Lett, 1997).
Values after ≈ are worked out from the molar mass of the structure shown.

Each molecule was assayed on Candida albicans (assay: In vitro minimum fungicidal concentration against Candida albicans (MY 1055) using a whole cell broth microdilution assay.).
Type: functional

Compound	MFC [µg/mL]
CCc1cc(C[C@H](O)[C@@H]2NC(=O)[C@@H]3C[C@@H](O)CN3C(=O)[C@H]([C@@H](C)O)NC(=O)[C@H](NC(=O)CCCCCCCCC(C)CC(C)CC)C[C@@H](O)CNC(=O)[C@@H]3[C@@H](O)CCN3C(=O)[C@H]([C@@H](O)CC(N)=O)NC2=O)ccc1O (some centres undefined)	1 (≈ 0.942 µM)
C=CCc1cc(C[C@H](O)[C@@H]2NC(=O)[C@@H]3C[C@@H](O)CN3C(=O)[C@H]([C@@H](C)O)NC(=O)[C@H](NC(=O)CCCCCCCCC(C)CC(C)CC)C[C@@H](O)CNC(=O)[C@@H]3[C@@H](O)CCN3C(=O)[C@H]([C@@H](O)CC(N)=O)NC2=O)ccc1O (some centres undefined)	1 (≈ 0.932 µM)
CCC(C)CC(C)CCCCCCCCC(=O)N[C@@H]1C[C@@H](O)CNC(=O)[C@@H]2[C@@H](O)CCN2C(=O)[C@H]([C@@H](O)CC(N)=O)NC(=O)[C@H]([C@@H](O)Cc2ccc(O)c([N+](=O)[O-])c2)NC(=O)[C@@H]2C[C@@H](O)CN2C(=O)[C@H]([C@@H](C)O)NC1=O (some centres undefined)	2 (≈ 1.85 µM)
CCC(C)CC(C)CCCCCCCCC(=O)N[C@@H]1C[C@@H](O)CNC(=O)[C@@H]2[C@@H](O)CCN2C(=O)[C@H]([C@@H](O)CC(N)=O)NC(=O)[C@H]([C@@H](O)Cc2ccc(O)cc2)NC(=O)[C@@H]2C[C@@H](O)CN2C(=O)[C@H]([C@@H](C)O)NC1=O (some centres undefined)	0.25 (≈ 0.242 µM)
CCC(C)CC(C)CCCCCCCCC(=O)N[C@@H]1C[C@@H](O)[C@@H](O)NC(=O)[C@@H]2[C@@H](O)CCN2C(=O)[C@H]([C@@H](O)CC(N)=O)NC(=O)[C@H]([C@@H](O)[C@H](O)c2ccc(O)c(N)c2)NC(=O)[C@@H]2C[C@@H](O)CN2C(=O)[C@H]([C@@H](C)O)NC1=O (some centres undefined)	2 (≈ 1.85 µM)
CCC(C)CC(C)CCCCCCCCC(=O)N[C@@H]1C[C@@H](O)CNC(=O)[C@@H]2[C@@H](O)CCN2C(=O)[C@H]([C@@H](O)CC(N)=O)NC(=O)[C@H]([C@@H](O)Cc2ccc(O)c(CCO)c2)NC(=O)[C@@H]2C[C@@H](O)CN2C(=O)[C@H]([C@@H](C)O)NC1=O (some centres undefined)	0.5 (≈ 0.464 µM)
CCC(C)CC(C)CCCCCCCCC(=O)N[C@@H]1C[C@@H](O)[C@@H](O)NC(=O)[C@@H]2[C@@H](O)CCN2C(=O)[C@H]([C@@H](O)CC(N)=O)NC(=O)[C@H]([C@@H](O)[C@H](O)c2ccc(O)cc2)NC(=O)[C@@H]2C[C@@H](O)CN2C(=O)[C@H]([C@@H](C)O)NC1=O (some centres undefined)	0.25 (≈ 0.235 µM)
CCC(C)CC(C)CCCCCCCCC(=O)N[C@@H]1C[C@@H](O)CNC(=O)[C@@H]2[C@@H](O)CCN2C(=O)[C@H]([C@@H](O)CC(N)=O)NC(=O)[C@H]([C@@H](O)Cc2ccc(O)c(I)c2)NC(=O)[C@@H]2C[C@@H](O)CN2C(=O)[C@H]([C@@H](C)O)NC1=O (some centres undefined)	0.5 (≈ 0.431 µM)
CCC(C)CC(C)CCCCCCCCC(=O)N[C@@H]1C[C@@H](O)CNC(=O)[C@@H]2[C@@H](O)CCN2C(=O)[C@H]([C@@H](O)CC(N)=O)NC(=O)[C@H]([C@@H](O)Cc2ccc3c(c2)CC(O)O3)NC(=O)[C@@H]2C[C@@H](O)CN2C(=O)[C@H]([C@@H](C)O)NC1=O (some centres undefined)	1 (≈ 0.93 µM)
CCC(C)CC(C)CCCCCCCCC(=O)N[C@@H]1C[C@@H](O)[C@@H](O)NC(=O)[C@@H]2[C@@H](O)CCN2C(=O)[C@H]([C@@H](O)CC(N)=O)NC(=O)[C@H]([C@@H](O)[C@H](O)c2cc(I)c(O)c(I)c2)NC(=O)[C@@H]2C[C@@H](O)CN2C(=O)[C@H]([C@@H](C)O)NC1=O (some centres undefined)	8 (≈ 6.07 µM)
CCC(C)CC(C)CCCCCCCCC(=O)N[C@@H]1C[C@@H](O)CNC(=O)[C@@H]2[C@@H](O)CCN2C(=O)[C@H]([C@@H](O)CC(N)=O)NC(=O)[C@H]([C@@H](O)Cc2ccc(O)c(N=[N+]=[N-])c2)NC(=O)[C@@H]2C[C@@H](O)CN2C(=O)[C@H]([C@@H](C)O)NC1=O (some centres undefined)	4 (≈ 3.72 µM)
CCC(C)CC(C)CCCCCCCCC(=O)N[C@@H]1C[C@@H](O)CNC(=O)[C@@H]2[C@@H](O)CCN2C(=O)[C@H]([C@@H](O)CC(N)=O)NC(=O)[C@H]([C@@H](O)Cc2ccc(O)c(N)c2)NC(=O)[C@@H]2C[C@@H](O)CN2C(=O)[C@H]([C@@H](C)O)NC1=O (some centres undefined)	2 (≈ 1.91 µM)
CCC(C)CC(C)CCCCCCCCC(=O)N[C@@H]1C[C@@H](O)[C@@H](O)NC(=O)[C@@H]2[C@@H](O)CCN2C(=O)[C@H]([C@@H](O)CC(N)=O)NC(=O)[C@H]([C@@H](O)[C@H](O)c2ccc(O)c(NC(=O)CCC(=O)O)c2)NC(=O)[C@@H]2C[C@@H](O)CN2C(=O)[C@H]([C@@H](C)O)NC1=O (some centres undefined)	0.25 (≈ 0.212 µM)
CCC(C)CC(C)CCCCCCCCC(=O)N[C@@H]1C[C@@H](O)CNC(=O)[C@@H]2[C@@H](O)CCN2C(=O)[C@H]([C@@H](O)CC(N)=O)NC(=O)[C@H]([C@@H](O)Cc2ccc(O)c(C(=O)OC)c2)NC(=O)[C@@H]2C[C@@H](O)CN2C(=O)[C@H]([C@@H](C)O)NC1=O (some centres undefined)	2 (≈ 1.83 µM)
CCC(C)CC(C)CCCCCCCCC(=O)N[C@@H]1C[C@@H](O)CNC(=O)[C@@H]2[C@@H](O)CCN2C(=O)[C@H]([C@@H](O)CC(N)=O)NC(=O)[C@H]([C@@H](O)Cc2ccc(O)c(O)c2)NC(=O)[C@@H]2C[C@@H](O)CN2C(=O)[C@H]([C@@H](C)O)NC1=O (some centres undefined)	0.5 (≈ 0.477 µM)
CCC(C)CC(C)CCCCCCCCC(=O)N[C@@H]1C[C@@H](O)[C@@H](O)NC(=O)[C@@H]2[C@@H](O)CCN2C(=O)[C@H]([C@@H](O)CC(N)=O)NC(=O)[C@H]([C@@H](O)[C@H](O)c2ccc(O)c(NC(=O)CCN)c2)NC(=O)[C@@H]2C[C@@H](O)CN2C(=O)[C@H]([C@@H](C)O)NC1=O (some centres undefined)	0.25 (≈ 0.217 µM)
C=Cc1cc(C[C@H](O)[C@@H]2NC(=O)[C@@H]3C[C@@H](O)CN3C(=O)[C@H]([C@@H](C)O)NC(=O)[C@H](NC(=O)CCCCCCCCC(C)CC(C)CC)C[C@@H](O)CNC(=O)[C@@H]3[C@@H](O)CCN3C(=O)[C@H]([C@@H](O)CC(N)=O)NC2=O)ccc1O (some centres undefined)	1 (≈ 0.944 µM)
CCC(C)CC(C)CCCCCCCCC(=O)N[C@@H]1C[C@@H](O)[C@@H](O)NC(=O)[C@@H]2[C@@H](O)CCN2C(=O)[C@H]([C@@H](O)CC(N)=O)NC(=O)[C@H]([C@@H](O)[C@H](O)c2ccc(O)c([N+](=O)[O-])c2)NC(=O)[C@@H]2C[C@@H](O)CN2C(=O)[C@H]([C@@H](C)O)NC1=O (some centres undefined)	8 (≈ 7.21 µM)
CCC(C)CC(C)CCCCCCCCC(=O)N[C@@H]1C[C@@H](O)[C@@H](O)NC(=O)[C@@H]2[C@@H](O)CCN2C(=O)[C@H]([C@@H](O)CC(N)=O)NC(=O)[C@H]([C@@H](O)[C@H](O)c2ccc(O)c(I)c2)NC(=O)[C@@H]2C[C@@H](O)CN2C(=O)[C@H]([C@@H](C)O)NC1=O (some centres undefined)	4 (≈ 3.36 µM)
CCC(C)CC(C)CCCCCCCCC(=O)N[C@@H]1C[C@@H](O)[C@@H](O)NC(=O)[C@@H]2[C@@H](O)CCN2C(=O)[C@H]([C@@H](O)CC(N)=O)NC(=O)[C@H]([C@@H](O)[C@H](O)c2ccc(O)c(NC(=O)CN)c2)NC(=O)[C@@H]2C[C@@H](O)CN2C(=O)[C@H]([C@@H](C)O)NC1=O (some centres undefined)	0.25 (≈ 0.22 µM)
CCC(C)CC(C)CCCCCCCCC(=O)N[C@@H]1C[C@@H](O)[C@@H](O)NC(=O)[C@@H]2[C@@H](O)CCN2C(=O)[C@H]([C@@H](O)CC(N)=O)NC(=O)[C@H]([C@@H](O)[C@H](O)c2ccc(O)c(NC(C)=O)c2)NC(=O)[C@@H]2C[C@@H](O)CN2C(=O)[C@H]([C@@H](C)O)NC1=O (some centres undefined)	1 (≈ 0.891 µM)
CCC(C)CC(C)CCCCCCCCC(=O)N[C@@H]1C[C@@H](O)CNC(=O)[C@@H]2[C@@H](O)CCN2C(=O)[C@H]([C@@H](O)CC(N)=O)NC(=O)[C@H]([C@@H](O)Cc2ccc(O)c(C=O)c2)NC(=O)[C@@H]2C[C@@H](O)CN2C(=O)[C@H]([C@@H](C)O)NC1=O (some centres undefined)	1 (≈ 0.942 µM)
CCC(C)CC(C)CCCCCCCCC(=O)N[C@@H]1C[C@@H](O)[C@@H](O)NC(=O)[C@@H]2[C@@H](O)CCN2C(=O)[C@H]([C@@H](O)CC(N)=O)NC(=O)[C@H]([C@@H](O)[C@H](O)c2ccc(O)c(NC(=O)CS)c2)NC(=O)[C@@H]2C[C@@H](O)CN2C(=O)[C@H]([C@@H](C)O)NC1=O (some centres undefined)	2 (≈ 1.73 µM)
CCC(C)CC(C)CCCCCCCCC(=O)N[C@@H]1C[C@@H](O)[C@@H](O)NC(=O)[C@@H]2[C@@H](O)CCN2C(=O)[C@H]([C@@H](O)CC(N)=O)NC(=O)[C@H]([C@@H](O)[C@H](O)c2ccc(O)c(N=[N+]=[N-])c2)NC(=O)[C@@H]2C[C@@H](O)CN2C(=O)[C@H]([C@@H](C)O)NC1=O (some centres undefined)	0.5 (≈ 0.452 µM)
CCCc1cc(C[C@H](O)[C@@H]2NC(=O)[C@@H]3C[C@@H](O)CN3C(=O)[C@H]([C@@H](C)O)NC(=O)[C@H](NC(=O)CCCCCCCCC(C)CC(C)CC)C[C@@H](O)CNC(=O)[C@@H]3[C@@H](O)CCN3C(=O)[C@H]([C@@H](O)CC(N)=O)NC2=O)ccc1O (some centres undefined)	0.5 (≈ 0.465 µM)

These molecules were tested on Mus musculus (assay: In vivo anti-Candida activity was obtained in the target organ kidney assay (TOKA), a mouse model of disseminated candidiasis; 0% of animals in test group with kidneys were completely sterilized of Candida albicans at the ED99.9 dose).
Type: functional

Compound	ED99.9 [mg/kg]
CCC(C)CC(C)CCCCCCCCC(=O)N[C@@H]1C[C@@H](O)[C@@H](O)NC(=O)[C@@H]2[C@@H](O)CCN2C(=O)[C@H]([C@@H](O)CC(N)=O)NC(=O)[C@H]([C@@H](O)[C@H](O)c2ccc(O)c(NC(=O)CCC(=O)O)c2)NC(=O)[C@@H]2C[C@@H](O)CN2C(=O)[C@H]([C@@H](C)O)NC1=O (some centres undefined)	6
CCC(C)CC(C)CCCCCCCCC(=O)N[C@@H]1C[C@@H](O)[C@@H](O)NC(=O)[C@@H]2[C@@H](O)CCN2C(=O)[C@H]([C@@H](O)CC(N)=O)NC(=O)[C@H]([C@@H](O)[C@H](O)c2ccc(O)c(NC(=O)CCN)c2)NC(=O)[C@@H]2C[C@@H](O)CN2C(=O)[C@H]([C@@H](C)O)NC1=O (some centres undefined)	0.78

What follows are molecules tested on Mus musculus (assay: In vivo anti-Candida activity was obtained in the target organ kidney assay (TOKA), a mouse model of disseminated candidiasis; 20% of animals in test group with kidneys were completely sterilized of Candida albicans at the ED99.9 dose).
Type: functional

Compound	ED99.9 [mg/kg]
CCC(C)CC(C)CCCCCCCCC(=O)N[C@@H]1C[C@@H](O)[C@@H](O)NC(=O)[C@@H]2[C@@H](O)CCN2C(=O)[C@H]([C@@H](O)CC(N)=O)NC(=O)[C@H]([C@@H](O)[C@H](O)c2ccc(O)cc2)NC(=O)[C@@H]2C[C@@H](O)CN2C(=O)[C@H]([C@@H](C)O)NC1=O (some centres undefined)	6

What follows are molecules tested on Mus musculus (assay: In vivo anti-Candida activity was obtained in the target organ kidney assay (TOKA), a mouse model of disseminated candidiasis; 40% of animals in test group with kidneys were completely sterilized of Candida albicans at the ED99.9 dose).
Type: functional

Compound	ED99.9 [mg/kg]
CCC(C)CC(C)CCCCCCCCC(=O)N[C@@H]1C[C@@H](O)[C@@H](O)NC(=O)[C@@H]2[C@@H](O)CCN2C(=O)[C@H]([C@@H](O)CC(N)=O)NC(=O)[C@H]([C@@H](O)[C@H](O)c2ccc(O)c(NC(=O)CN)c2)NC(=O)[C@@H]2C[C@@H](O)CN2C(=O)[C@H]([C@@H](C)O)NC1=O (some centres undefined)	0.75
